The values that follow come from publication PMC12040169 (PLOS Biology, 2025).

This data set in a line: in vitro. The settings on record: human, hela cells, % viability.

The viability is a read-out of living cells in per cent, often relative to untreated cells. Take `O=C(c1cnc2cc(C(F)(F)F)ccc2c1O)N1CCN(c2ccccn2)CC1` [CBK107431]: the viability at 28.5 h, 10 µM stood at 94.8%.

`Cn1ccc2cc(NS(=O)(=O)c3ccc4[nH]c(=O)[nH]c(=O)c4c3)ccc21` [CBK286364]: the viability at 28.5 h, 10 µM was 95.4%.

For the compound `CC(C)S(=O)(=O)N1C[C@@H](c2ccccc2)[C@H]2[C@H]1CCCCCN2C` [CBK283083], the viability at 28.5 h, 10 µM was determined as 91.1%.

On to `O=C(O)c1ccc(OC(=O)C2CCCC2)cc1` [CBK090156], for which the viability at 28.5 h, 10 µM was determined as 103%.

Consider `CC1(c2ccccc2)CC(=O)N(CCC(=O)O)C1=O` (stereo not shown) [CBK287091], for which the viability at 28.5 h, 10 µM came out at 83.3%.

With `COc1ncc(-c2nccnc2OCCc2c[nH]c3ccccc23)c(OC)n1` [CBK106743], the viability at 28.5 h, 10 µM came out at 79.2%.

Regarding `CN(C)Cc1c(O)ccc2occ(C(=O)c3cccs3)c12` [CBK261959C], the viability at 28.5 h, 10 µM stood at 103%.

As to `CCN(CC)CC(=O)Nc1sc2c(c1C#N)CCCC2` [CBK261646], the viability at 28.5 h, 10 µM is 102%.

On to `CCOC(=O)C1CCCN(CCC(=O)Nc2cccc(C)c2)C1` (stereo not shown) [CBK264158C], for which the viability at 28.5 h, 10 µM stood at 107%.

As for `O=C(O)CCCCCNS(=O)(=O)c1ccc(Cl)cc1` [CBK261940], the viability at 28.5 h, 10 µM stood at 81.4%.

Consider `CC(C)CC(Nc1ncnc2c1oc1ccccc12)C(=O)O` (stereo not shown) [CBK293974], for which the viability at 28.5 h, 10 µM came to 100%.

Regarding `Cc1nn(C)c2ncc(S(=O)(=O)NCC(N)c3ccc(F)cc3F)cc12` (stereo not shown) [CBK304303C], the viability at 28.5 h, 10 µM came to 99.1%.

Take `COc1ccc(C)cc1S(=O)(=O)Nc1cc(Cl)ccc1C(=O)NCc1ccccc1` [CBK113954]: the viability at 28.5 h, 10 µM turned out to be 85.5%.

In the case of `CCn1cncc1CN(Cc1ccc(F)cc1)CC1CCCO1` (stereo not shown) [CBK283036], the viability at 28.5 h, 10 µM was determined as 98%.

On to `CN1CCN(c2nc(-c3cc4ccccc4s3)cn3ccnc23)CC1` [CBK066388], for which the viability at 28.5 h, 10 µM turned out to be 106%.

With `OC(CN1CCNCC1)Cn1c2ccc(Cl)cc2c2cc(Cl)ccc21` (stereo not shown) [CBK094277G], the viability at 28.5 h, 10 µM was determined as 68.1%.

For `Cc1ccc(CN(Cc2[nH]cnc2C)C2CC(C)(C)NC(C)(C)C2)o1` [CBK283176], the viability at 28.5 h, 10 µM amounted to 96.7%.

As for `COc1coc(CN2C(=O)COc3cccnc32)cc1=O` [CBK307126], the viability at 28.5 h, 10 µM was found to be 96.7%.

With `CC(C)n1c(=O)n(CC(=O)NCc2ccccc2)c2cccnc21` [CBK283758], the viability at 28.5 h, 10 µM is 99.8%.

Consider `COc1ccc(-c2nc(NCc3ccccc3)n(C(=O)c3ccc([N+](=O)[O-])cc3)n2)cc1` [CBK268265], for which the viability at 28.5 h, 10 µM is 92.8%.

For `CCC(=O)N1CCC(NC(=O)N(CCc2ccccn2)Cc2ccccc2)CC1` [CBK171898], the viability at 28.5 h, 10 µM amounted to 90.9%.

With `Cn1ccc(C(=O)NC2CCN(c3ncccn3)CC2)cc1=O` [CBK304280], the viability at 28.5 h, 10 µM was determined as 85.2%.

For `Cc1nc(C2CC(O)C2)cc(N2CCC(C(=O)N3CCOCC3)CC2)n1` (stereo not shown) [CBK307675], the viability at 28.5 h, 10 µM turned out to be 102%.

In the case of `CCc1c(C)nc2ccccc2c1SCC(=O)O` [CBK153279], the viability at 28.5 h, 10 µM amounted to 83.9%.

For the compound `O=C(NCCNc1ccc([N+](=O)[O-])cc1Cl)c1ccccc1Cl` [CBK263541], the viability at 28.5 h, 10 µM turned out to be 112%.

For `CC(=O)Oc1ccc(N2C(=O)CCSC2=S)cc1` [CBK005283], the viability at 28.5 h, 10 µM was 89.4%.

As to `Cc1ccc(S(=O)(=O)N(CC(=O)Nc2ccccc2C(=O)O)c2ccccc2)cc1` [CBK264034], the viability at 28.5 h, 10 µM was determined as 94.6%.

In the case of `COC(=O)N/N=C(/C)c1ccc(C)cc1` [CBK016149], the viability at 28.5 h, 10 µM was 109%.

`CC(NC(=O)CCC(=O)O)C12CC3CC(CC(C3)C1)C2` (stereo not shown) [CBK287105]: the viability at 28.5 h, 10 µM was 97.9%.

As for `COc1ccc(-c2ncc(OCc3cccs3)nc2N)c(OC)c1` [CBK145088], the viability at 28.5 h, 10 µM was 84%.

As for `CC(=O)N/C(=C/c1ccccc1)C(=O)NCCC(=O)O` [CBK264046], the viability at 28.5 h, 10 µM stood at 87.2%.

As for `COc1ccc(-c2cc(C(=O)NCc3nc4ccccc4[nH]3)cnc2-c2ccccc2)cn1` [CBK037579], the viability at 28.5 h, 10 µM worked out at 99.6%.

In the case of `Cc1ccc([C@]2(O)CC[C@H]3CN(Cc4cccc(F)c4F)C[C@H]32)nc1` [CBK283088], the viability at 28.5 h, 10 µM was 98.1%.

As for `COc1ccc(OC)c(NC(=O)CN2CCC(C(N)=O)(N3CCCCC3)CC2)c1` [CBK268462], the viability at 28.5 h, 10 µM is 98.2%.

Take `O=C(O)c1cc(-c2cccc(O)c2)nc2ccc(Br)cc12` [CBK261777]: the viability at 28.5 h, 10 µM was determined as 97.9%.

In the case of `CCN(CC)CCN1CCN(c2cc(-c3ccc4c(c3)OCO4)ncn2)CC1` [CBK037694], the viability at 28.5 h, 10 µM was found to be 86%.

`Cc1noc(NS(=O)(=O)c2ccc(NC(=O)COc3ccc(Cl)cc3Cl)cc2)c1C` [CBK262142]: the viability at 28.5 h, 10 µM is 89.3%.

For the compound `O=C(O)c1cccc(Nc2nc(-c3ccccc3)nc3ccccc23)c1` [CBK263941C], the viability at 28.5 h, 10 µM is 97.6%.

With `Fc1cccc(Nc2nc(C3CCNCC3)c3ccccn23)c1` [CBK281522], the viability at 28.5 h, 10 µM was 107%.

Turning to `CN(C)S(=O)(=O)c1cc(C(=O)Nc2ccc(C(=O)O)cc2)c(Cl)cc1Cl` [CBK266783], the viability at 28.5 h, 10 µM stood at 99.5%.

With `CCc1nc2ccc(C(=O)N3CCN(C)CC3)cn2c1N(C)Cc1ccc(NC(C)=O)cc1` [CBK145603], the viability at 28.5 h, 10 µM was found to be 87%.

For the compound `O=S(=O)(N1CCOCC1)N1CCN(CC(O)COc2ccc3cc(Br)ccc3c2)CC1` (stereo not shown) [CBK268840], the viability at 28.5 h, 10 µM stood at 103%.

On to `CCn1c(C)nc2cc(NC(=O)c3cnn(C)c3)ccc21` [CBK281837], for which the viability at 28.5 h, 10 µM turned out to be 86.1%.

For `COc1cc(C=O)ccc1Oc1nnnn1-c1ccc(C(=O)O)cc1` [CBK267071], the viability at 28.5 h, 10 µM is 95.5%.

On to `CN(C)C(=O)C1(Cc2ccc(-c3cccs3)cc2)CCN(C(=O)Cc2ccccc2)CC1` [CBK285784], for which the viability at 28.5 h, 10 µM was 93.2%.

As for `COc1ccc([C@@]23CC[C@@H](NC(=O)Nc4cccc(C(F)(F)F)c4F)C[C@@H]2CN(C)C3)cc1OC` [CBK063195A], the viability at 28.5 h, 10 µM stood at 98.5%.

Turning to `Cn1c(COc2ccccc2)nnc1SCC(=O)c1cccc([N+](=O)[O-])c1` [CBK268397], the viability at 28.5 h, 10 µM is 101%.

For `CCCC(C)C(=O)Nc1ccncc1` (stereo not shown) [CBK057984], the viability at 28.5 h, 10 µM was 87.1%.

`CC(C)(C)OC(=O)N1CCN(Cc2ccc(N)c3ccccc23)CC1` [CBK084530]: the viability at 28.5 h, 10 µM amounted to 109%.

As to `O=C(NCCn1nc(-c2cccs2)ccc1=O)c1ccco1` [CBK283838], the viability at 28.5 h, 10 µM came out at 90.1%.

With `Cc1ccc(-n2c(=O)[nH]c3c(C(N)=O)nc(CC(C)C)nc32)cc1` [CBK287294], the viability at 28.5 h, 10 µM came to 102%.

Take `O=C(Cc1ccc(F)cc1)N1C2CCC1CC(O)(c1ccco1)C2` (stereo not shown) [CBK284033]: the viability at 28.5 h, 10 µM turned out to be 86.4%.

`COC(=O)CCC(=O)N1CCC(Cn2cncn2)(C2CCCCC2)CC1` [CBK136810]: the viability at 28.5 h, 10 µM was 90.8%.

`Cc1cccc2sc(NC(=O)c3ccccc3)nc12` [CBK287300]: the viability at 28.5 h, 10 µM amounted to 102%.

`CC(=O)Nc1cccc(Oc2nccnc2-c2ccc(F)cc2)c1` [CBK106900]: the viability at 28.5 h, 10 µM stood at 37.1%.

As to `CCCOC1CCCN(Cc2c(C)n(CC(N)=O)c3ccccc23)C1` (stereo not shown) [CBK282797], the viability at 28.5 h, 10 µM came to 99.2%.

Consider `COc1ccnc(N2CCN(C(=O)c3cnn(C)c3)CC2)n1` [CBK306125], for which the viability at 28.5 h, 10 µM worked out at 90.7%.

With `O=C(NC[C@H]1C[C@@H]2CC[N@]1C[C@@H]2CN1CCN(c2ccccn2)CC1)Nc1ccccc1` [CBK289114], the viability at 28.5 h, 10 µM stood at 106%.

For `FC(F)(F)Oc1ccc(-c2cc(Nc3ccc(N4CCOCC4)cc3)ncn2)cc1` [CBK090934], the viability at 28.5 h, 10 µM is 88.9%.

For `COc1cc(OC)cc(C(=O)Nc2ncccc2OCCCC#N)c1` [CBK304899], the viability at 28.5 h, 10 µM came out at 88.3%.

For `CCc1nn(CC(=O)N(CC)CC)c(=O)c2cc3sccc3n12` [CBK284054], the viability at 28.5 h, 10 µM came out at 77.8%.

On to `COc1ccc(-c2csc(NC(=O)C(C)C)c2C(=O)O)cc1` [CBK286622], for which the viability at 28.5 h, 10 µM was determined as 83.1%.

For the compound `CCCCCn1c(=O)c(C(=O)Nc2cccc(O)c2)c(O)c2ccccc21` [CBK291189], the viability at 28.5 h, 10 µM was 111%.

In the case of `Cc1cc2n(n1)C(c1ccc(C(=O)O)cc1)Nc1ccccc1-2` (stereo not shown) [CBK287000], the viability at 28.5 h, 10 µM worked out at 80.8%.

Take `O=C1NC(=S)NC(=O)C1=Cc1ccc(OCc2ccccc2F)c(Br)c1` [CBK264257]: the viability at 28.5 h, 10 µM (bulk resorufin, single well) amounted to 97.7%.

Take `CC(C)NCc1c(O)c(Br)cc2oc3c(c12)CCCC3` [CBK160400]: the viability at 28.5 h, 10 µM worked out at 96.5%.

For the compound `CCOC(=O)c1c(NC(=O)Cn2cnc([N+](=O)[O-])n2)sc2c1CCCC2` [CBK262583], the viability at 28.5 h, 10 µM came to 88.4%.

As to `CC1CCN(C(=O)c2cc(-c3ccco3)[nH]n2)CC1` [CBK296648], the viability at 28.5 h, 10 µM was determined as 101%.

As to `CCn1ncc(S(=O)(=O)Nc2ccc3c(c2)cc(C)n3C)c1C` [CBK282761], the viability at 28.5 h, 10 µM was found to be 95.6%.

Consider `CN1CCN(Cc2c(C(C)(C)C)[nH]c3ncccc23)CC1` [CBK285334], for which the viability at 28.5 h, 10 µM is 104%.

Consider `CCNC(=O)Nc1ccc([C@@H](O)[C@H]2COCC(=O)N2CC)cc1` [CBK289696], for which the viability at 28.5 h, 10 µM was 93.5%.

Take `Cc1cccc(OCCSc2nc3c(N)ncn(Cc4ccccc4)c-3n2)c1` [CBK266843]: the viability at 28.5 h, 10 µM was 84.1%.

Take `CSc1nnc2c(n1)OC(/C=C/c1ccccc1)N(C(C)=O)c1ccccc1-2` (stereo not shown) [CBK264453]: the viability at 28.5 h, 10 µM was found to be 99.7%.

Take `O=C(O)CSCC(=O)c1ccccc1` [CBK262140]: the viability at 28.5 h, 10 µM was determined as 93.1%.

For the compound `O=C(CCCN1C(=O)c2cccc3cccc(c23)C1=O)N1CCN(Cc2ccc3c(c2)OCO3)CC1` [CBK074370], the viability at 28.5 h, 10 µM was 72.6%.

In the case of `Nc1nc2cccnc2cc1-c1ccsc1` [CBK081214], the viability at 28.5 h, 10 µM turned out to be 85.8%.

Regarding `Nc1ncc(-c2ccc3c(c2)OCO3)nc1Nc1ccc2[nH]ccc2c1` [CBK063667], the viability at 28.5 h, 10 µM amounted to 94.6%.

For the compound `O=C(c1cccc(NS(=O)(=O)Cc2ccccc2)c1)N1CCOCC1` [CBK038991], the viability at 28.5 h, 10 µM is 91%.

Regarding `O=C(c1ccco1)N1CCC[C@@H]1[C@@H](O)c1cccs1` [CBK284291], the viability at 28.5 h, 10 µM stood at 80.7%.
